Results reported in publication PMC12669040, “Tumour-specific STING agonist synthesis via a two-component prodrug system” (Nature Chemistry, 2025).
Where “and” joins values, the source holds several entries; their conditions need not be identical. Equal values may be shown once.

Legend:
[1] = Colorimetric alkylation rate constant assay with TNB^2− as non-specific thiol; format: physicochemical; set-up: second-order: unit not given here; details: for remaining [B]: in µM
[2] = Colorimetric alkylation rate constant assay with thiol N1; format: physicochemical; details: for remaining [A]: N1 from calibration curve (N1 in uM); for remaining [A] / remaining [B]: in µM
[3] = Time 2891 sec, [B]0 = 250, Replicates 1-3
[4] = Time 3071 sec, [B]0 = 250, Replicates 1-3
[5] = Time 3252 sec, [B]0 = 250, Replicates 1-3
[6] = Time 3433 sec, [B]0 = 250, Replicates 1-3
[7] = Time 3613 sec, [B]0 = 250, Replicates 1-3

C=CS(=O)(=O)Nc1cc2cc(C(=O)CCC(=O)O)sc2cc1OC [Compound E1]
remaining [B] ([1]; Replicate 1, 723 sec, [B]0 = 250): 246.895
remaining [B] ([1]; Replicate 1, 903 sec, [B]0 = 250): 246.517
remaining [B] ([1]; Replicate 1, 1084 sec, [B]0 = 250): 246.063
remaining [B] ([1]; Replicate 1, 1265 sec, [B]0 = 250): 245.71
remaining [B] ([1]; Replicate 1, 1445 sec, [B]0 = 250): 245.231
remaining [B] ([1]; Replicate 1, 1626 sec, [B]0 = 250): 244.866
remaining [B] ([1]; Replicate 1, 1806 sec, [B]0 = 250): 244.513
remaining [B] ([1]; Replicate 1, 1988 sec, [B]0 = 250): 243.833
remaining [B] ([1]; Replicate 1, 2168 sec, [B]0 = 250): 243.543
remaining [B] ([1]; Replicate 1, 2349 sec, [B]0 = 250): 242.9
remaining [B] ([1]; Replicate 1, 2530 sec, [B]0 = 250): 242.61
remaining [B] ([1]; Replicate 1, 2710 sec, [B]0 = 250): 242.169
remaining [B] ([1]; Replicate 2, 542 sec, [B]0=250): 248.022
remaining [B] ([1]; Replicate 2, 723 sec, [B]0=250): 247.165
remaining [B] ([1]; Replicate 2, 903 sec, [B]0=250): 246.925
remaining [B] ([1]; Replicate 2, 1084 sec, [B]0=250): 246.522
remaining [B] ([1]; Replicate 2, 1265 sec, [B]0=250): 246.258
remaining [B] ([1]; Replicate 2, 1445 sec, [B]0=250): 245.88
remaining [B] ([1]; Replicate 2, 1626 sec, [B]0=250): 245.262
remaining [B] ([1]; Replicate 2, 1806 sec, [B]0=250): 245.073
remaining [B] ([1]; Replicate 2, 1988 sec, [B]0=250): 244.304
remaining [B] ([1]; Replicate 2, 2168 sec, [B]0=250): 244.191
remaining [B] ([1]; Replicate 2, 2349 sec, [B]0=250): 243.649
remaining [B] ([1]; Replicate 2, 2530 sec, [B]0=250): 243.511
remaining [B] ([1]; Replicate 2, 2710 sec, [B]0=250): 243.032
remaining [B] ([1]; Replicate 3, 723 sec, [B]0=250): 248.495
remaining [B] ([1]; Replicate 3, 903 sec, [B]0=250): 247.89
remaining [B] ([1]; Replicate 3, 1084 sec, [B]0=250): 247.373
remaining [B] ([1]; Replicate 3, 1265 sec, [B]0=250): 246.731
remaining [B] ([1]; Replicate 3, 1445 sec, [B]0=250): 246.365
remaining [B] ([1]; Replicate 3, 1626 sec, [B]0=250): 245.899
remaining [B] ([1]; Replicate 3, 1806 sec, [B]0=250): 245.521
remaining [B] ([1]; Replicate 3, 1988 sec, [B]0=250): 245.08
remaining [B] ([1]; Replicate 3, 2168 sec, [B]0=250): 244.563
remaining [B] ([1]; Replicate 3, 2349 sec, [B]0=250): 244.16
remaining [B] ([1]; Replicate 3, 2530 sec, [B]0=250): 243.744
remaining [B] ([1]; Replicate 3, 2710 sec, [B]0=250): 243.505
second-order [1, 3]: 0.0003098 and 0.0002905 and 0.000349
remaining [B] [1, 3]: 243.089 and 241.779 and 242.654
second-order [1, 4]: 0.0003222 and 0.0003146 and 0.0003655
remaining [B] [1, 4]: 242.547 and 241.413 and 242.377
second-order [1, 5]: 0.0003374 and 0.0003303 and 0.0003793
remaining [B] [1, 5]: 242.194 and 241.111 and 242.036
second-order [1, 6]: 0.0003624 and 0.0003513 and 0.0004046
remaining [B] [1, 6]: 241.728 and 240.556 and 241.482
second-order [1, 7]: 0.0003733 and 0.000365 and 0.0004313
remaining [B] [1, 7]: 241.426
second-order ([1]; Time 3794 sec, [B]0 = 250, Replicates 1-3): 0.0003951 and 0.0003787 and 0.000436
second-order ([1]; Time 3974 sec, [B]0 = 250, Replicates 1-3): 0.0004043 and 0.0004098 and 0.0004713
second-order ([1]; Time 4155 sec, [B]0 = 250, Replicates 1-3): 0.0004287 and 0.0004139 and 0.0004754
second-order ([1]; Time 4336 sec, [B]0 = 250, Replicates 1-3): 0.0004451 and 0.0004267 and 0.000504
second-order ([1]; Time 4516 sec, [B]0 = 250, Replicates 1-3): 0.0004586 and 0.0004477 and 0.0005214
second-order ([1]; Time 4697 sec, [B]0 = 250, Replicates 1-3): 0.000471 and 0.0004671 and 0.0005431
second-order ([1]; Time 4878 sec, [B]0 = 250, Replicates 1-3): 0.000487 and 0.0004831 and 0.0005503
second-order ([1]; Time 5058 sec, [B]0 = 250, Replicates 1-3): 0.0005055 and 0.0005004 and 0.0005698
second-order ([1]; Time 5239 sec, [B]0 = 250, Replicates 1-3): 0.0005247 and 0.0005046 and 0.0005919
second-order ([1]; Time 5419 sec, [B]0 = 250, Replicates 1-3): 0.000547 and 0.000531 and 0.0006054
second-order ([1]; Time 5600 sec, [B]0 = 250, Replicates 1-3): 0.0005568 and 0.0005491 and 0.0006296
second-order ([1]; Time 5781 sec, [B]0 = 250, Replicates 1-3): 0.0005744 and 0.0005674 and 0.0006477
second-order ([1]; Time 5961 sec, [B]0 = 250, Replicates 1-3): 0.0005953 and 0.0005931 and 0.0006685
remaining [A] ([2]; Replicate 1, time 576 sec): 47.8044
remaining [B] ([2]; Replicate 1, time 576 sec, [B]0 = 250): 193.684
second-order ([2]; Replicate 1, time 576 sec, second-order plot value): 0.003586
remaining [A] ([2]; Replicate 1, time 606 sec): 46.4649
remaining [B] ([2]; Replicate 1, time 606 sec, [B]0 = 250): 192.345
second-order ([2]; Replicate 1, time 606 sec, second-order plot value): 0.003734
remaining [A] ([2]; Replicate 2, time 576 sec): 30.5226
remaining [B] ([2]; Replicate 2, time 576 sec, [B]0=250): 177.381
second-order ([2]; Replicate 2, time 576 sec, second-order plot value): 0.005955
remaining [A] ([2]; Replicate 2, time 606 sec): 29.3038
remaining [B] ([2]; Replicate 2, time 606 sec, [B]0=250): 176.162
second-order ([2]; Replicate 2, time 606 sec, second-order plot value): 0.006185
remaining [A] ([2]; Replicate 3, time 576 sec): 37.5866
remaining [B] ([2]; Replicate 3, time 576 sec, [B]0=250): 183.039
second-order ([2]; Replicate 3, time 576 sec, second-order plot value): 0.00489
remaining [A] ([2]; Replicate 3, time 606 sec): 36.1527
remaining [B] ([2]; Replicate 3, time 606 sec, [B]0=250): 181.605
second-order ([2]; Replicate 3, time 606 sec, second-order plot value): 0.005103
remaining [B] ([2]; time 0 sec, [B]0 = 250, replicates 1-3): 244.616 and 236.007 and 232.398
second-order ([2]; time 0 sec, replicates 1-3): 0.000777 and 0.0002138 and 0.0005945
remaining [B] ([2]; time 30 sec, [B]0 = 250, replicates 1-3): 239.016 and 232.843 and 226.134
second-order ([2]; time 30 sec, replicates 1-3): 0.001109 and 0.0004543 and 0.0007469
remaining [B] ([2]; time 60 sec, [B]0 = 250, replicates 1-3): 231.981 and 229.623 and 220.975
second-order ([2]; time 60 sec, replicates 1-3): 0.00141 and 0.0007862 and 0.0009101
remaining [B] ([2]; time 91 sec, [B]0 = 250, replicates 1-3): 228.545 and 226.744 and 217.517
second-order ([2]; time 91 sec, replicates 1-3): 0.001628 and 0.0009622 and 0.001063
remaining [B] ([2]; time 121 sec, [B]0 = 250, replicates 1-3): 224.298 and 223.153 and 210.771
second-order ([2]; time 121 sec, replicates 1-3): 0.002097 and 0.001194 and 0.001265
remaining [B] ([2]; time 151 sec, [B]0 = 250, replicates 1-3): 215.18 and 221.016 and 204.96
second-order ([2]; time 151 sec, replicates 1-3): 0.002555 and 0.001754 and 0.001392
remaining [B] ([2]; time 182 sec, [B]0 = 250, replicates 1-3): 211.366 and 218.251 and 202.608
second-order ([2]; time 182 sec, replicates 1-3): 0.002758 and 0.002017 and 0.001562
remaining [B] ([2]; time 212 sec, [B]0 = 250, replicates 1-3): 208.552 and 215.829 and 199.773
second-order ([2]; time 212 sec, replicates 1-3): 0.003017 and 0.002225 and 0.001719
remaining [B] ([2]; time 242 sec, [B]0 = 250, replicates 1-3): 206.279 and 213.378 and 197.222
second-order ([2]; time 242 sec, replicates 1-3): 0.003266 and 0.002402 and 0.001885
remaining [B] ([2]; time 273 sec, [B]0 = 250, replicates 1-3): 203.276 and 211.041 and 194.671
second-order ([2]; time 273 sec, replicates 1-3): 0.003532 and 0.002649 and 0.002052
remaining [B] ([2]; time 303 sec, [B]0 = 250, replicates 1-3): 200.625 and 209.074 and 192.148
second-order ([2]; time 303 sec, replicates 1-3): 0.003812 and 0.002882 and 0.002197
remaining [B] ([2]; time 333 sec, [B]0 = 250, replicates 1-3): 197.649 and 207.193 and 190.108
second-order ([2]; time 333 sec, replicates 1-3): 0.004053 and 0.00316 and 0.002343
remaining [B] ([2]; time 364 sec, [B]0 = 250, replicates 1-3): 195.376 and 205.141 and 187.925
second-order ([2]; time 364 sec, replicates 1-3): 0.004327 and 0.003387 and 0.002508
remaining [B] ([2]; time 394 sec, [B]0 = 250, replicates 1-3): 193.158 and 203.203 and 186.139
second-order ([2]; time 394 sec, replicates 1-3): 0.004565 and 0.003621 and 0.002671
remaining [B] ([2]; time 424 sec, [B]0 = 250, replicates 1-3): 190.588 and 201.351 and 184.155
second-order ([2]; time 424 sec, replicates 1-3): 0.004845 and 0.003909 and 0.002833
remaining [B] ([2]; time 454 sec, [B]0 = 250, replicates 1-3): 188.694 and 199.783 and 182.426
second-order ([2]; time 454 sec, replicates 1-3): 0.005104 and 0.004135 and 0.002976
remaining [B] ([2]; time 485 sec, [B]0 = 250, replicates 1-3): 186.908 and 198.016 and 181.378
second-order ([2]; time 485 sec, replicates 1-3): 0.005268 and 0.00436 and 0.003143
remaining [B] ([2]; time 515 sec, [B]0 = 250, replicates 1-3): 185.014 and 196.591 and 179.79
second-order ([2]; time 515 sec, replicates 1-3): 0.005529 and 0.004611 and 0.003284
remaining [B] ([2]; time 545 sec, [B]0 = 250, replicates 1-3): 184.094 and 195.166 and 178.713
second-order ([2]; time 545 sec, replicates 1-3): 0.005715 and 0.004739 and 0.003429
